Literature values in PMC10017685 (Nature Communications, 2023).

Test system: human erythrocytes
Design: method as in DBAASP
Conditions: toxicity class label 1 or 0, meaning of the labels not given; DBAASP HC50 data, human erythrocytes; ref DBAASP; cited from earlier work

| Sequence | Class (dedicated toxicity dataset used for toxicity classifier evaluation) |
| --- | --- |
| FFLLSLIPSAISAIKKI [DBAASP_8438] | 0 |
| FFPGIIKVAGAILPTAICAITKRC [DBAASP_10252] | 0 |
| FFPIIAGMAAKLIPSLFCKITKKC [DBAASP_4209] | 1 |
| FFPIIAGMAAKVICAITKKC [DBAASP_4211] | 1 |
| FFPIVGKLLSGLF [DBAASP_1882] | 0 |
| FFPLIFGALSSILPKIL [DBAASP_18209] | 1 |
| FFRLLFHGVHHGGGYLNAA [DBAASP_1428] | 0 |
| FFRLLFHGVHHVGKIKPRA [DBAASP_1429] | 0 |
| FIGAIARLLSKIF [DBAASP_1465] | 1 |
| FIGALLRPALKLLAGK [DBAASP_5719] | 0 |
| FIGMIPGLIGGLISAIK [DBAASP_9867] | 1 |
| FIHHAAGGLFSAGKAIHRLIRRRRR [DBAASP_17363] | 0 |
| FIHHIIGGLFSAGKAIHRLIRRRRR [DBAASP_5623] | 1 |
| FIHHIIGGLFSVGKHIHSLIHGH [DBAASP_12673] | 1 |
| FIHHIIGGLFSVGKHIHSLIHRRRR [DBAASP_17379] | 1 |
| FKRIVQRIKDFLR [DBAASP_3393] | 0 |
| FLAGLIGGLAKML [DBAASP_1978] | 0 |
| FLGAIAGVAAKFLPKVFCFITKKC [DBAASP_6167] | 1 |
| FLGALFKVASKLVPAAICSISKKC [DBAASP_15602] | 0 |
| FLGALIKGAIHGGRFIHGMIQNHH [DBAASP_1413] | 0 |
| FLGALLKIGAKVLPSVLCGIFKKC [DBAASP_14203] | 1 |
| FLGLLFHGVHHVGKWIHGLIHGHH [DBAASP_1001] | 1 |
| FLGSIVGALASALPSLISKIRN [DBAASP_2209] | 1 |
| FLGSLFSIGSKLLPGVIKLFQRKKQ [DBAASP_17526] | 1 |

| Sequence | Class (dedicated toxicity dataset used for toxicity classifier evaluation) |
| --- | --- |
| FLIGMTQGLICLITRKC [DBAASP_1477] | 0 |
| FLKGIKGMLGKLF [DBAASP_9109] | 0 |
| FLKGIKGMLGKLL [DBAASP_9112] | 0 |
| FLKGIVGKLGKLF [DBAASP_9110] | 0 |
| FLKGIVGMLGKLF [DBAASP_8203] | 1 |
| FLKGIVGMLGKLL [DBAASP_9111] | 0 |
| FLKGIVGMLGKLW [DBAASP_9113] | 1 |
| FLKWALKVAAK [DBAASP_16466] | 0 |
| FLKWALKWAAK [DBAASP_16467] | 0 |
| FLPAALAGIGGILGKLF [DBAASP_9469] | 0 |
| FLPAIAGLAAKFLPKIFCAITKKC [DBAASP_13908] | 1 |
| FLPAIAGVAAKFLPKIFCAITKKC [DBAASP_13909] | 0 |
| FLPAIVGAAAKFLPKIFCAISKKC [DBAASP_4213] | 1 |
| FLPAVLKVAAHILPTAICAISRRC [DBAASP_5694] | 0 |
| FLPFLKSILGKIL [DBAASP_13349] | 0 |
| FLPFLLSALPKVFCFFSKKC [DBAASP_6702] | 1 |
| FLPFVGNLLKGLL [DBAASP_1881] | 0 |
| FLPGILKVAAK [DBAASP_16464] | 0 |
| FLPGILKVAANVVPGVI [DBAASP_16463] | 0 |
| FLPGILKVAANVVPGVICAITKKC [DBAASP_16462] | 0 |
| FLPGLIKAAVGVGSTILCKITKKC [DBAASP_8373] | 0 |
| FLPIIAGAAAKVVEKIFCAISKKC [DBAASP_4217] | 1 |
| FLPIIAGIAAKFLPKIFCTISKKC [DBAASP_4214] | 1 |
| FLPIIAGMAAKVICAITKKC [DBAASP_4210] | 1 |

| Sequence | Class (dedicated toxicity dataset used for toxicity classifier evaluation) |
| --- | --- |
| FLPIIGQLLSGLL [DBAASP_4222] | 0 |
| FLPILAGLAAKIVPKLFCLATKKC [DBAASP_2201] | 1 |
| FLPILAGLAAKLVPKVFCSITKKC [DBAASP_4220] | 1 |
| FLPILAGLAANILPKVFCSITKKC [DBAASP_4221] | 1 |
| FLPILASLAAKFGPKLFSLVTKKS [DBAASP_4418] | 0 |
| FLPILASLAAKLGPKLFCLVTKKC [DBAASP_3537] | 1 |
| FLPIVAGLAANFLPKIVCKITKKC [DBAASP_1889] | 1 |
| FLPIVGKLLSGLF [DBAASP_1883] | 0 |
| FLPIVGRLISGIL [DBAASP_13347] | 0 |
| FLPIVGRLISGLL [DBAASP_5287] | 0 |
| FLPIVTNLLSGLL [DBAASP_2205] | 0 |
| FLPKILKVAAK [DBAASP_16465] | 0 |
| FLPKWALKWAAK [DBAASP_16468] | 0 |
| FLPLIAGVAANFLPKIFCLISKKC [DBAASP_6168] | 1 |
| FLPLIAGVAASILPKIFCFITKKC [DBAASP_6170] | 1 |
| FLPLIASLAANFVPKIFCKITKKC [DBAASP_3563] | 0 |
| FLPLIASVAANLVPKIFCKITKKC [DBAASP_3564] | 0 |
| FLPLILPSIVTALSSFLKQG [DBAASP_8197] | 0 |
| FLPLKKLRFGLL [DBAASP_5722] | 0 |
| FLPLLASLFSRLF [DBAASP_4935] | 1 |
| FLPLLLAGLPKLLCLFFKKC [DBAASP_1470] | 1 |
| FLPLVTMLLGKLF [DBAASP_3105] | 1 |
| FLPMLAGLAANFLPKIVCKITKKC [DBAASP_1892] | 1 |
